# EPA's ToxValDB 9.5 (doi:10.2903/j.efsa.2016.4605)
# Tests used:
# Hypoaspis aculeifer = details: chronic/long-term; reproduction
# Tagia sp. = details: chronic/long-term; reproduction
# Oncorhynchus mykiss = details: for LC50: acute, mortality; for NOEC: chronic/long-term
# Folsomia candida = details: chronic/long-term; reproduction
# Mus musculus = details: chronic; histopathology: neoplastic
# Daphnia magna = details: chronic/long-term
# Rattus norvegicus = details: for LD50: acute, oral, mortality
# Apis mellifera = details: acute, mortality
# Typhlodromus pyri = assay: LR50; higher = less toxic; details: not reported; mortality
# [1] = duration: 21 days, reproduction
SMILES,NOEC (Hypoaspis aculeifer) [mg/kg],NOEC (Tagia sp.) [mg/kg],LC50 (Oncorhynchus mykiss; duration: 96 hours) [µg/mL],NOEC (Folsomia candida) [mg/kg],NOAEL (Mus musculus) [mg/kg-day],NOEC (Daphnia magna; [1]) [mg/L],LD50 (Rattus norvegicus) [mg/kg-day],other results
CC1CNC(=O)N1 (centres undefined) [4-Methyl-2-imidazolidinone],≥ 100,≥ 1000,> 100,90,8,100,,"NOEC (Oncorhynchus mykiss; duration: 63 days, growth): 2 mg/L"
CC1CNC(=S)N1 (centres undefined) [4-Methylimidazolidine-2-thione],≥ 100,178,,9,0.16,3.2,795,"LC50 (Oncorhynchus mykiss): > 100 µg/mL; NOEC (Oncorhynchus mykiss; duration: 28 days, growth): 102 mg/L"
"CC1CN2C(=S)SSC2=N1 (centres undefined) [6-Methyl-5,6-dihydroimidazo[2,1-C][1,2,4]dithiazole-3-thione]",,,,,,,,"NOAEL (Rattus norvegicus; short-term, duration: 28 days, neurology): 0.466 mg/kg-day"
CC(CNC(=S)[S-])NC(=S)[S-].[Zn+2] (centres undefined) [Propineb],39.1,38.7,0.329,39.1,,0.015,> 2000,"NOEC (Oncorhynchus mykiss; duration: 28 days, other): > 0.6 mg/L; NOEC (Oncorhynchus mykiss; growth): 0.0823 mg/L; NOAEL (Rattus norvegicus; chronic, M, organ weight): 2.5 mg/kg-day; NOAEL (Rattus norvegicus; developmental, development): 3 mg/kg-day; NOAEL (Rattus norvegicus; reproduction developmental, body weight): 3 mg/kg-day; NOAEL (Rattus norvegicus; subchronic, F, body weight): 9.36 mg/kg-day; LD50 (Coturnix japonica; acute, oral, mortality): > 5000 mg/kg-day; NOAEL (Coturnix japonica; chronic): 64.7 mg/kg-day; NOEC (Daphnia magna; duration: 35 days, other): 0.48 mg/L; LD50 (Apis mellifera; dermal): > 100 µg/piece; LD50 (Apis mellifera; oral, unspecified): > 100 µg/piece; LR50 (Typhlodromus pyri): 5.6 g/ha"
